Laboratory results published in ChEMBL document CHEMBL1201862, “PubChem BioAssay data set” (2004).
Active and inactive are the calls of the source.

Columns and labels:
[1] = molecular target: T1, Short transient receptor potential channel 4 (Mus musculus, UniProt Q9QUQ5); assay: mouse TRPC4 channel inhibitors, dose response, cell-based, HEK293 TRPC4/mu-opioid, Fluo-4 calcium (AID 434942); assay type: functional;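 also: potency of inhibitors blocking the TRPC4 calcium response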
T1 sequence (Q9QUQ5 whole entry): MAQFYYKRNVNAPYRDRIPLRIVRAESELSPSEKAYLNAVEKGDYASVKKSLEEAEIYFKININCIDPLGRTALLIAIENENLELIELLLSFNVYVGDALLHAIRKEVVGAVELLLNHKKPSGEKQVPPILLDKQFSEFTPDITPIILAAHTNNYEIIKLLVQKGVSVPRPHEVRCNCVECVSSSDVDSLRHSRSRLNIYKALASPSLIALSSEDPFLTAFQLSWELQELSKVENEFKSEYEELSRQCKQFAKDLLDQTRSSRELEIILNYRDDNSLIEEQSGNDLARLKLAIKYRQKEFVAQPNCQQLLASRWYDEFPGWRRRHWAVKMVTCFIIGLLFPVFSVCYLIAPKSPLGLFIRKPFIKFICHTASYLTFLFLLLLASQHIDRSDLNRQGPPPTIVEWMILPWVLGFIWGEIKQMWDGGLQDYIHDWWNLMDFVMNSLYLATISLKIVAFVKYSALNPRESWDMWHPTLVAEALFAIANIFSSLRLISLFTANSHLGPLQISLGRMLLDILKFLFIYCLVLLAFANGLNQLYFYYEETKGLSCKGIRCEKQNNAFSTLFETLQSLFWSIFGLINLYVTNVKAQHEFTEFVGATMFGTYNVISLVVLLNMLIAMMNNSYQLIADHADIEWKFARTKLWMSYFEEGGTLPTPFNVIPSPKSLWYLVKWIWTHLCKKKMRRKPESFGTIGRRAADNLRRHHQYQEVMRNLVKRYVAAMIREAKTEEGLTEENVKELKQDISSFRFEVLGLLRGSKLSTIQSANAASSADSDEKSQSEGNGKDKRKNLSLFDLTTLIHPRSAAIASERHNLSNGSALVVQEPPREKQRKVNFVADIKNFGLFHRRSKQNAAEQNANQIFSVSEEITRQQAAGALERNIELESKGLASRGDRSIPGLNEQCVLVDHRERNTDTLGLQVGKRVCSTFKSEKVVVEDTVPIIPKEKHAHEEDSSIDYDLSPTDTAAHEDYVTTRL

[2] = molecular target: T2, Estrogen receptor (Homo sapiens, UniProt P03372);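 also: potency for inhibiting coactivator peptide recruitment to the receptor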
T2 sequence (P03372 whole entry): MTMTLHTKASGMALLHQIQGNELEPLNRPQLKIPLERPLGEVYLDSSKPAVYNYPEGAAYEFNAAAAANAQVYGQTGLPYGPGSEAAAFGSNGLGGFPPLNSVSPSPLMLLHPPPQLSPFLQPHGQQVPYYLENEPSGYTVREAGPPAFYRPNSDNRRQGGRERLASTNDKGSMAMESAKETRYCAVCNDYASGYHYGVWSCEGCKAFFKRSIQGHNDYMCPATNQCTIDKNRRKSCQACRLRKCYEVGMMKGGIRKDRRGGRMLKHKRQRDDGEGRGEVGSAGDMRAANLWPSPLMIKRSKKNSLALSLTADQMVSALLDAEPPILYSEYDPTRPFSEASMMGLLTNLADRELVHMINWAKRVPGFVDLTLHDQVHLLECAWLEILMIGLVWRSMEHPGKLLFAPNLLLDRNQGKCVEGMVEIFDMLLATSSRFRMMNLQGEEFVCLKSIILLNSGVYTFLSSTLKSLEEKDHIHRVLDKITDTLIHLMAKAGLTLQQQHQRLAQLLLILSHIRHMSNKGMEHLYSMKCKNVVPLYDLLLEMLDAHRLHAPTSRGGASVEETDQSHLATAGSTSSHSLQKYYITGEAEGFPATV

[3] = molecular target: Glyceraldehyde-3-phosphate dehydrogenase (Homo sapiens, UniProt P04406)
[4] = molecular target: Nonstructural protein 1 (Influenza A virus, UniProt Q194T2); assay type: functional, Influenza A virus (A/California/07/2009(H1N1))
[5] = molecular target: T3, Alkaline phosphatase, tissue-nonspecific isozyme (Homo sapiens, UniProt P05186); assay: human TNAP enzyme inhibitors, SAR follow-up, biochemical, luminescent, dose response (AID 1056)
T3 sequence (P05186 whole entry): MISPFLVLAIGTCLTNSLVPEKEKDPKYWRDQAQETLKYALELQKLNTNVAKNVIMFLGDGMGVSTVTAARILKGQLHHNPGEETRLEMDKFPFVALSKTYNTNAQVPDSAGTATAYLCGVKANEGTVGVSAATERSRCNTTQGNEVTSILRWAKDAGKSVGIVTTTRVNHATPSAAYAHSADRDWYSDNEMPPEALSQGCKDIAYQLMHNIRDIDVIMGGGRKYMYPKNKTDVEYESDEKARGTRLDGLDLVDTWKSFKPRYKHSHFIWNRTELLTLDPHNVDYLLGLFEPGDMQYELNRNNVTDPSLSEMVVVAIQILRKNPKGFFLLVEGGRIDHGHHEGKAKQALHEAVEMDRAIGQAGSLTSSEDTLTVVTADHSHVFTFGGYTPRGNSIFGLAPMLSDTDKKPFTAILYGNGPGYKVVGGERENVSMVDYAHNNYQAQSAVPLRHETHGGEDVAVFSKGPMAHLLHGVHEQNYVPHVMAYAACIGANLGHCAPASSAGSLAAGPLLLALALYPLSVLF

[6] = molecular target: T4, Leucine aminopeptidase (Plasmodium falciparum 3D7, UniProt Q8IL11); assay: P. falciparum M17LAP inhibitors, primary screen, biochemical, fluorogenic H-Leu-NHMec substrate, 1536-well (AID 1619); assay type: functional
T4 sequence (Q8IL11 whole entry): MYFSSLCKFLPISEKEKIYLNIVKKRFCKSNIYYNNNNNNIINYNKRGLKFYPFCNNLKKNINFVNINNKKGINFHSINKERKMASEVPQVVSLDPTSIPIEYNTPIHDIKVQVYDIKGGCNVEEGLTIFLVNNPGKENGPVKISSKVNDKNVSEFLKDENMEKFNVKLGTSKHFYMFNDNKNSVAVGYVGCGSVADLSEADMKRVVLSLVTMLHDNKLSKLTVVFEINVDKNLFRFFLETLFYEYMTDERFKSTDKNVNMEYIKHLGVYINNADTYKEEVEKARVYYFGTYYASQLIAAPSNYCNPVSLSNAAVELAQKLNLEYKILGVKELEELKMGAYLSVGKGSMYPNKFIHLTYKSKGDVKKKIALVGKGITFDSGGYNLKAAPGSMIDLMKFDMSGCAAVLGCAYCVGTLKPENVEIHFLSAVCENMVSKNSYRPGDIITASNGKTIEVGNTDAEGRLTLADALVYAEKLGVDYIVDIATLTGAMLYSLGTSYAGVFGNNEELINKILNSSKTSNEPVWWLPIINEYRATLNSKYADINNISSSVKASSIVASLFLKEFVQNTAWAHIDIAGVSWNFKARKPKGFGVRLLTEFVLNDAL

[7] = inhibitors of intracellular T. cruzi replication, confirmation, NIH3T3 host cells, beta-gal luminescence (AID 2044); assay type: functional, cell-based;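 also: intracellular parasites grown in NIH/3T3 mouse fibroblasts as host cells; luminescent beta-galactosidase reporter signal from transgenic T. cruzi replicating inside host cells; inhibitors lower the luminescence signal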
[8] = cytotoxicity toward NIH3T3 fibroblasts, dose response, counter-screen, cell-based, ATP luminescence, mouse fibroblasts (AID 2010); assay type: functional;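 also: cells exposed to compound for about 90 hours before reading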
[9] = tested on: H9c2; assay: cells; assay type: functional, cell-based; conditions: Rattus norvegicus, H9c2, Myocardium;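 also: confirmatory concentration-response retest of ultra-high-throughput screening hits for modulation of myocardial damage; cell death induced by hydrogen peroxide oxidative stress; compound pretreatment for 60 min then peroxide exposure for 2 h; potency is for protecting the cells against peroxide damage rather than for killing them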
[10] = molecular target: T5, Polyadenylate-binding protein 1 (Homo sapiens, UniProt P11940); assay: PABP1 MLLE–PAM2 interaction inhibitors, dose response, miRNA deadenylation inhibitor project, biochemical, fluorescence polarization, Cy5-PAM2 peptide, secondary (AID 602260); assay type: functional; conditions: read-out: IC50_Mean
[11] = molecular target: T5, Polyadenylate-binding protein 1; assay: PABP1 MLLE–PAM2 binding inhibitor potency, dose response, biochemical, fluorescence polarization, FITC-PAM2 peptide (AID 602259); assay type: functional; conditions: read-out: IC50_Mean
[12] = molecular target: T6, RNA-binding protein pos-1 (Caenorhabditis elegans, UniProt G5EF15); assay: inhibitors of POS-1/mex-3 RNA binding, dose response, biochemical, fluorescence polarization (AID 1964);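 also: purified POS-1 fused to maltose binding protein made in E. coli; potency of compounds blocking POS-1 binding to fluorescent RNA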
T6 sequence (G5EF15 whole entry): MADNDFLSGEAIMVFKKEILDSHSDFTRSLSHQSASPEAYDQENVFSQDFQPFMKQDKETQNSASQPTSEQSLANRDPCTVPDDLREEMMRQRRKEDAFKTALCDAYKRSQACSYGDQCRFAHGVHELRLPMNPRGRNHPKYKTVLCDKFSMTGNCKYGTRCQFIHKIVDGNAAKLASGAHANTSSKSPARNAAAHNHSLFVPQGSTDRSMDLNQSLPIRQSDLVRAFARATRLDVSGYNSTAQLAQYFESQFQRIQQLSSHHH

[13] = molecular target: T7, Zinc finger protein mex-5 (Caenorhabditis elegans, UniProt Q9XUB2); assay: MEX-5/TCR-2 RNA interaction inhibitors, dose response, biochemical, C. elegans, fluorescence polarization (AID 1960)
T7 sequence (Q9XUB2 whole entry): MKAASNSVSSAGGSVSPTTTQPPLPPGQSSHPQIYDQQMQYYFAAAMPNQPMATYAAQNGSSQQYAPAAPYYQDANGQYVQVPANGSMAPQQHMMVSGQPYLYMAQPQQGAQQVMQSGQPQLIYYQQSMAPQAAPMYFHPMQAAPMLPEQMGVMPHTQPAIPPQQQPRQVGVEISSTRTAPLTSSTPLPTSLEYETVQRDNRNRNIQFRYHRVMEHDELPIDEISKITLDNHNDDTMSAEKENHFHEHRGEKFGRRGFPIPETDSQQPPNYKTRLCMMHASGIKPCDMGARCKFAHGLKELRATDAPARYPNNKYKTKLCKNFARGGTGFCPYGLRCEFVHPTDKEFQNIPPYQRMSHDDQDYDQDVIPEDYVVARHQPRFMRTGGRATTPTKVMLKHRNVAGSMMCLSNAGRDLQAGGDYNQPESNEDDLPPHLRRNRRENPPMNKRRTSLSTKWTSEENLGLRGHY

[14] = Luminescence Cell-Based Dose Response HTS to Identify Activators of Luciferase Translation or Activity in H4 […] Cells. [Related pubchem assays: 1829 (Project Summary), 1814 (Primary HTS)]; assay type: functional
[15] = inhibitors of HIV Env-driven cell fusion, dose response, cherry-pick (AID 652057); assay type: functional, cell-based
[16] = inhibitors of clade B AD8 Env fusion, dose response, cell-based, cherry-pick (AID 652062); assay type: functional;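 also: luciferase signal from cell-cell fusion driven by HIV-1 clade B AD8 Env; potency is for inhibitors of fusion seen as a drop in luminescence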
[17] = ZM109 Env clade C HIV-1 fusion inhibitors, dose response, HeLa effector, CEM target cells, luciferase, cherry-pick (AID 652058); assay type: functional, cell-based
[18] = molecular target: Paired box protein Pax-8 (Homo sapiens, UniProt Q06710); assay: inhibitors of PAX8-driven TPO luciferase reporter, dose response, RMG-I cells, cherry-pick (AID 687027); assay type: functional, cell-based;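 also: luciferase reporter driven by Pax8 target thyroperoxidase promoter measured by SteadyGlo luminescence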
Chain of Paired box protein Pax-8 (Q06710 whole entry): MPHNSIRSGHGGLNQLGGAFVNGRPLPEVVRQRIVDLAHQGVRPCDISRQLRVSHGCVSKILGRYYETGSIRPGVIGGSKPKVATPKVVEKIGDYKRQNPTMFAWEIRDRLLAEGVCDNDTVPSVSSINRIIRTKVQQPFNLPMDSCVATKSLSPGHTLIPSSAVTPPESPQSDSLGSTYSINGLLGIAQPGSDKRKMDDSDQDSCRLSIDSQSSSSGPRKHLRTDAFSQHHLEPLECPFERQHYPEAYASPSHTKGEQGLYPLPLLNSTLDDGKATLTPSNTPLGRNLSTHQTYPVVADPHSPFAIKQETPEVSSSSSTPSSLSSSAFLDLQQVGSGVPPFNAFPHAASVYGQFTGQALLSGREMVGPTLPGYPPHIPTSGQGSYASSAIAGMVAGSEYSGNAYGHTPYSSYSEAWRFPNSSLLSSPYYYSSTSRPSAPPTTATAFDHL

Chain of Glyceraldehyde-3-phosphate dehydrogenase (P04406 whole entry): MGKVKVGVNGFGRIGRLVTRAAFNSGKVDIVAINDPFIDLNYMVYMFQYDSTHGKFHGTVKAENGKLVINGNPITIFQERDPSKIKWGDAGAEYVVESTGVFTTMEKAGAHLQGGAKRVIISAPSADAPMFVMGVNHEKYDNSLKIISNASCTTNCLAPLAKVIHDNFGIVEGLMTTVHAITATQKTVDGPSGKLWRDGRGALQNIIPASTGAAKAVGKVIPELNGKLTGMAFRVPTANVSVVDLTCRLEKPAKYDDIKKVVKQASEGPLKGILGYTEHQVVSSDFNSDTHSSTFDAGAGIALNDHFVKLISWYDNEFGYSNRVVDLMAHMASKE
T5 sequence (P11940 whole entry): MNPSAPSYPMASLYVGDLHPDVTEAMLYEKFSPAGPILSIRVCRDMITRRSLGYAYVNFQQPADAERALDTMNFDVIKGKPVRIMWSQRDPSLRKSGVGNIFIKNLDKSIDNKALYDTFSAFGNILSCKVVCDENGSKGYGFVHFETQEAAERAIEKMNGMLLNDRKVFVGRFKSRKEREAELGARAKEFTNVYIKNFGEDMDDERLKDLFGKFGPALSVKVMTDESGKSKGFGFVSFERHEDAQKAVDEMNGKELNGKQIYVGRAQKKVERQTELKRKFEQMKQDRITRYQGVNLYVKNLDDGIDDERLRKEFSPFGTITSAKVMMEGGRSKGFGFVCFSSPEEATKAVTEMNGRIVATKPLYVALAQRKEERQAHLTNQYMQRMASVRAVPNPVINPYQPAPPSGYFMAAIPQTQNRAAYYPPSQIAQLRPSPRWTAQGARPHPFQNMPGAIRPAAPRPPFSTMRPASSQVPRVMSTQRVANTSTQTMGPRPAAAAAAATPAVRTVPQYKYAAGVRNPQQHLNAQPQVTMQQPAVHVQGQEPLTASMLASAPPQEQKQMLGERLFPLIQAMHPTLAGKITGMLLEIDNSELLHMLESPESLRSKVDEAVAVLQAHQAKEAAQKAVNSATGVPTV
Chain of Nonstructural protein 1 (Q194T2 whole entry): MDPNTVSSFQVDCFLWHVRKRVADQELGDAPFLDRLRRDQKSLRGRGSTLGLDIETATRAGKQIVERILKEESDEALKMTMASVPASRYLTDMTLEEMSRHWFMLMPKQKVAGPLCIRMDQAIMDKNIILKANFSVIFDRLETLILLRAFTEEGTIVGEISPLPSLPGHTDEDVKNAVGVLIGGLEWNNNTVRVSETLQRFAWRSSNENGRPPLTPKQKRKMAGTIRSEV

CCCn1c(NCc2ccc(C)o2)nc2ccccc21
EC50 [1]: 5.31 µM (active)

COc1ccc2nc3oc(C(=O)N4CCN(c5cccc(C(F)(F)F)c5)CC4)cc3cc2c1
IC50 [2]: 15.4 µM (active)

Cc1nc2sccn2c1-c1nc(-c2cc3ccccc3o2)cs1
IC50 [2]: 10.7 µM (active)

Cc1ccc(NC2=NC(=O)/C(=C/c3ccc(O)c([N+](=O)[O-])c3)S2)cc1Cl
IC50 [3]: > 100 µM (not active)

O=[N+]([O-])c1ccc(N2CCOCC2)cc1NC(c1ccccc1)c1ccccc1
IC50 [4]: > 100 µM (active)

COC(=O)c1cc(-c2ccc(C)cc2C)n[nH]1
IC50 [3]: > 100 µM (not active) | IC50 [5]: 1.62 µM (active)

O=c1c2ccccc2nc(SCc2ccccc2)n1CC1CCCO1 (configuration not stated)
EC50 [1]: 3.35 µM (active)

CCSc1nnc(NC(=O)C2CCCCC2C(=O)OCC(F)(F)C(F)F)s1 (configuration not stated)
IC50 [6]: 76.8 µM (active)

Cc1nnc(SCC(=O)Nc2cccc(C(F)(F)F)c2)[nH]c1=O
IC50 [6]: 15.1 µM (active)

CCCCn1c(NC(=O)c2ccccc2)nc2ccccc21
EC50 [7]: 2.15 µM (active) | EC50 [8]: 11.3 µM (active) | EC50 [1]: 5.96 µM (active) | IC50 [9]: 9.17 µM (active)

CCOC(=O)CC(=O)CSc1nc(O)c2sc(=S)n(-c3ccccc3)c2n1
IC50 [6]: 40.6 µM (active)

c1ccc(-c2ccccc2OCCOCCN2CCCCC2)cc1
EC50 [1]: 2.11 µM (active)

CCc1c(O)nc(SCC(=O)Nc2ccc3c(c2)CCC3)nc1O
IC50 [6]: 8.08 µM (active)

COc1cccc(C(CNC(=O)C(c2ccccc2)c2ccccc2)N(C)C)c1 (configuration not stated)
EC50 [1]: 0.944 µM (active)

O=C(O)c1cc(-c2ccco2)nc2ccccc12
IC50 [10]: > 66 µM (inactive) | IC50 [11]: > 66 µM (inactive) | IC50 [2]: 23.4 µM (active)

Cc1ccc(NC(=O)c2sc3nc4c(c(-c5ccco5)c3c2N)CCC4)cc1
EC50 [12]: 2.13 µM (active) | EC50 [13]: 2.85 µM (active) | IC50 [2]: > 50 µM (not active)

CCOC(=O)c1cc(-c2ccc3c(c2)OCCO3)n[nH]1
IC50 [3]: > 100 µM (not active) | IC50 [5]: 6.04 µM (active) | EC50 [14]: 0.345 µM (active)

CC(=O)Nc1n[nH]c(SCc2ccc(Br)cc2)n1
IC50 [3]: > 100 µM (not active) | IC50 [5]: > 100 µM (inactive)

Cc1ccc(S(=O)(=O)Cc2ccc(C(=O)NCc3ccc4c(c3)OCO4)o2)cc1
IC50 [2]: 37.5 µM (not active)

COc1ccc(Br)cc1S(=O)(=O)Nc1ccc2ccccc2c1
IC50 [3]: > 10 µM (inconclusive) | IC50 [5]: > 10 µM (inactive)

COc1ccc(Cc2nnc(N3C(=O)[C@H]4CC=CC[C@H]4C3=O)[nH]2)cc1
IC50 [3]: > 100 µM (not active) | IC50 [5]: 96 µM (active)

COc1ccc(C(=O)NCCc2ccc(Cl)cc2)cc1S(=O)(=O)N1CCCCC1C (configuration not stated)
AC50 [15]: 21.7 µM (active) | AC50 [16]: 11.4 µM (active) | AC50 [17]: 67.5 µM (active)

C[C@H](CO)N1C[C@H](C)[C@H](CN(C)Cc2ccc(Cl)c(Cl)c2)Oc2c(NS(=O)(=O)c3ccc(Cl)cc3)cccc2C1=O
AC50 [15]: 26.9 µM (active) | AC50 [16]: 42.9 µM (active) | AC50 [18]: 13.7 µM (active) | AC50 [17]: 20.1 µM (active)

Cc1ccc(/C=c2/sc3nnc(-c4ccccc4Cl)n3c2=O)o1
IC50 [6]: 28.7 µM (active)
